Tested on: HEK293 cells
Test: HEK293 Cytotoxicity Assay (CellTiterGlo, CC50)
Format: cell-based, human
Text: Some exemplary assays and examples for assessing therapeutic efficacy, e.g., anticancer effects, of exemplary compounds of the invention are described herein or are well known in the art. HEK293 is a human kidney cell line, and efficacy on HEK293 is considered to be predictive of usefulness for therapeutic treatment.
HEK293 cells were obtained from American Type Culture Collection (ATCC) (Rockville Md.). Cells were maintained in Dulbecco's modified Eagle's medium (DMEM) (Invitrogen, Carlsbad, Calif.) with 10% fetal bovine serum (FBS), 10 mM HEPES and 1 mM sodium pyruvate. Cells were grown at 37° C. in a humidified incubator with a gas phase of 5% CO2. Cells were grown for 24 hours in a Tripleflask (NUNC) to −95% confluence and then resuspended for dispensing at 125,000 cells/mL of DMEM, 10% FBS, 10 mM Hepes and 1 mM sodium pyruvate.
HEK293 cells were seeded in 96 well microtiter plates at 10000 cells/well. After 24 hours of incubation an equal volume of fresh media containing test compounds at given concentrations was added. Plates were then incubated and cells were allowed to proliferate for 48 hours at 37° C., 95% humidity, and 5% CO2. […] A solution of Promega CellTiterGlo (100 microliters) was added by Thermo Combi and the plates were allowed to sit for 10 minutes before reading on a Perkin-Elmer EnVision with US LUM settings for 0.1 sec per well. […]

Structure (SMILES)	activity on HEK293 cells (CC50, 50% cytotoxic concentration) (at 500 uM, 48 hours with compound)	potency relative to AICAR in HEK293 assay (HEK293 cells, times the potency of AICAR)
COP(=O)(OC)OC[C@H]1O[C@@H](n2cnc(C(N)=O)c2N)[C@H](O)[C@@H]1O [SB00024]	inactive	
NC(=O)c1ncn([C@@H]2O[C@H](COP(=O)(O)Oc3ccc([N+](=O)[O-])cc3)[C@@H](O)[C@H]2O)c1N [SB00039]		roughly 100 times
